From publication PMC12749252 (Nature Communications, 2025) come the findings set out here.

The target of one assay is WEE1 (Homo sapiens, UniProt P30291). In words: NanoBRET target engagement in HEK293 cells. It is filed as cell-based. A general note: Bioluminescence resonance energy transfer reports proximity on the nanometre scale.
The target of the next assay is GCN2 (Homo sapiens, UniProt Q9P2K8). In words: Eurofins KinaseProfiler in vitro. It is filed as biochemical.

A word on the IC50: it is the midpoint of a concentration-inhibition curve. Read a low IC50 as greater potency.

GCN2, sequence (Q9P2K8 whole entry): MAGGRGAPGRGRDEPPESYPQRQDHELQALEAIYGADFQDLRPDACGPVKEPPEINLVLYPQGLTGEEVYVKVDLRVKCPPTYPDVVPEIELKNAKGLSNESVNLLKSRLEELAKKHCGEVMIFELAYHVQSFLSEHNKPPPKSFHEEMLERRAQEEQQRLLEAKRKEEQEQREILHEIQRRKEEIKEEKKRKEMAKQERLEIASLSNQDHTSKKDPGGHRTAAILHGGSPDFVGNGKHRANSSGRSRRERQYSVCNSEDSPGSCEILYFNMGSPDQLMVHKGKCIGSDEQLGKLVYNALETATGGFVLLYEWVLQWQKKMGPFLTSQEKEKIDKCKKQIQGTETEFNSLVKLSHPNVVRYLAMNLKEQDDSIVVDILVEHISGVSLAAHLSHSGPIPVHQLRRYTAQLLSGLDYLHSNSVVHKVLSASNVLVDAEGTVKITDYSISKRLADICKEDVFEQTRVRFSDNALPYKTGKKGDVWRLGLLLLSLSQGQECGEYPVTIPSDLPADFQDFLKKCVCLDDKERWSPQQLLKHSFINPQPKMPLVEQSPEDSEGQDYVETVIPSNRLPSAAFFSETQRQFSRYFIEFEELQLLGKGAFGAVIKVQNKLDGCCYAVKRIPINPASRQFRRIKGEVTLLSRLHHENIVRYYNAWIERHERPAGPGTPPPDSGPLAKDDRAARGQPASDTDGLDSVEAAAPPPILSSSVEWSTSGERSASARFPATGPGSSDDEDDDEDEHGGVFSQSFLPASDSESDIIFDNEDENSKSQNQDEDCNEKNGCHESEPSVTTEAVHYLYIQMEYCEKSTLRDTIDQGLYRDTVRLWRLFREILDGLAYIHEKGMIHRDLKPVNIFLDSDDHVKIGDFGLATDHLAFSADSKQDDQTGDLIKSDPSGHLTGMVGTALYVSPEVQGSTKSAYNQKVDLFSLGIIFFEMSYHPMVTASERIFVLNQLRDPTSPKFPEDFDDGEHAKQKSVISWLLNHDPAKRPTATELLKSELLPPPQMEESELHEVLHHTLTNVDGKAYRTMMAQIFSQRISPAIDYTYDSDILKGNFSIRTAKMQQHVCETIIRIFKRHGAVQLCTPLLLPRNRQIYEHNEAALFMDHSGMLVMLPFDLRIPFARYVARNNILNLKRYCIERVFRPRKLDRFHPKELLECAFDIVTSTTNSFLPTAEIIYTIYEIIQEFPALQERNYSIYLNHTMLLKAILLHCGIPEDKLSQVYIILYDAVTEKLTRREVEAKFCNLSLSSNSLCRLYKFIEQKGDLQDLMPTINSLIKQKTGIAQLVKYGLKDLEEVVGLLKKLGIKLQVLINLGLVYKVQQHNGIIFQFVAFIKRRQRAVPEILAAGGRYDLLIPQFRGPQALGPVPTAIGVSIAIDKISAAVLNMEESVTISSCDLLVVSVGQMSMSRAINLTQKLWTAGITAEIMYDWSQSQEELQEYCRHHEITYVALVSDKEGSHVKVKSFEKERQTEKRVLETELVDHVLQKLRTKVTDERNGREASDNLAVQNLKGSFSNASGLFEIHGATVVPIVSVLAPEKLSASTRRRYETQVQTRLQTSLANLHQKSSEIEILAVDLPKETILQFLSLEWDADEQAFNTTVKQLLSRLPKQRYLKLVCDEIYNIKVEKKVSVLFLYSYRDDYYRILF
WEE1, sequence (P30291 whole entry): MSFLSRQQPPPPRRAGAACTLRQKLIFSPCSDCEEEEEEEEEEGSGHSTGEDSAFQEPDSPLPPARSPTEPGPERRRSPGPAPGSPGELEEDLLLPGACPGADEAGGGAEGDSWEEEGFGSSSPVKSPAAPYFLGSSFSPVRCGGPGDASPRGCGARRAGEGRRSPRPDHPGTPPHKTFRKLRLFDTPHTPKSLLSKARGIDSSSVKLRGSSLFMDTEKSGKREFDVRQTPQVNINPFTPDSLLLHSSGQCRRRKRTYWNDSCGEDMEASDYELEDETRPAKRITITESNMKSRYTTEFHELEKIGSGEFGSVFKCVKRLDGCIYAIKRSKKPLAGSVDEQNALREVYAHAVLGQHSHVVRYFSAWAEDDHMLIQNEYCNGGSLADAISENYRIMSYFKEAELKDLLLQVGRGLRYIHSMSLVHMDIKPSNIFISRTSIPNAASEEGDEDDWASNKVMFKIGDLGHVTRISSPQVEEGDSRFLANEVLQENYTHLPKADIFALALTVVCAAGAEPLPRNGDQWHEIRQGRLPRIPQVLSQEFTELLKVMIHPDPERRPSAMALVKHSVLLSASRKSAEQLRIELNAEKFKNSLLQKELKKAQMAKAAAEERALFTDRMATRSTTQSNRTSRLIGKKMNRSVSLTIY

For `Cc1cc2c(C(N)=O)c(N)n(-c3c(C)ccc(O)c3C)c2nc1C` [RP-6306], the “NanoBRET target engagement in HEK293 cells (only at high doses)” value at WEE1 is “while PKMYT1i only interacted at high doses (Fig. 5c)”.

As for `C=CCn1c(=O)c2cnc(Nc3ccc(N4CCN(C)CC4)cc3)nc2n1-c1cccc(C(C)(C)O)n1` [AZD1775], half-maximal inhibition against GCN2 (IC50) was put at 0.14 µM.
